From patent publication US9303076B2, “Cell-penetrating peptides and uses thereof” (Hoffmann-La Roche Inc., priority 2010, dated 2016)
Entries after “also recorded” stand apart in the source; their conditions may differ.

Assays:
MCF7 cells [1] = system: MCF7 cells
Protocol: (§1) MCF7 cells were seeded at a density of 15.000 cells per well in 96 well plates. The cells were incubated for 24 hours at 37° C., 5% CO2 and 85% humidity in RPMI 1640 medium supplemented with 10% FCS (fetal calf serum) and L-glutamine. For functional assays, the cells were washed in OptiMEM medium and RPMI 1640 was replaced with OptiMEM (all reagents were purchased from Invitrogen Corporation, Carlsbad, Calif., USA). Complexes of siRNAs and peptides were formed by incubation of 100 nM siRNA with the indicated peptide concentrations in OptiMEM for 30 minutes at room temperature. The complexes were added to the cells and incubated for 3 hours. Subsequently, OptiMEM was replaced with normal RPMI 1640 growth medium. The cells were incubated for further 21 hours for generating bDNA lysates, and for further 45 hours for performing CellTiter-Glo or CytoTox-Glo assays (cf. below).
(§2) In order to measure the number of living cells the CellTiter-Glo Luminescent Cell Viability Assay (Promega Corporation, Madison, Wis., USA) was used according to the protocol of the manufacturer. The cells were incubated for 48 hours in the presence of peptides and siRNAs. Subsequently, the cells are lysed, and a luminescent signal proportional to the amount of ATP present is generated which, in turn, is proportional to the number of living cells present. Luminescence was analyzed in an InfiniteF200 luminescence reader.
(§3) Based on this observation, GAPDH mRNA levels were used as a general readout for toxicity: an average measurement of 100% GAPDH mRNA relative to the medium control was considered as non-toxic, values between 99% and 70% as moderate toxic, and values of less than 70% as toxic (cf. FIG. 3).
(§4) Similarly, peptides resulting in GAPDH mRNA values >70% were classified as “nontoxic”, whereas peptides that caused a reduction of GAPDH mRNA to lesser values were termed “toxic”.

recombinant BCL2 = biological target: T1, recombinant BCL2 (Homo sapiens, UniProt P10415); experiment: BCL2 binding to bead-immobilized peptides; details: iodoacetyl beads, elution buffer pH 2.8, protein stain
T1 construct: purchased Calbiochem/Merck, Darmstadt, Germany
T1 sequence (P10415 whole entry): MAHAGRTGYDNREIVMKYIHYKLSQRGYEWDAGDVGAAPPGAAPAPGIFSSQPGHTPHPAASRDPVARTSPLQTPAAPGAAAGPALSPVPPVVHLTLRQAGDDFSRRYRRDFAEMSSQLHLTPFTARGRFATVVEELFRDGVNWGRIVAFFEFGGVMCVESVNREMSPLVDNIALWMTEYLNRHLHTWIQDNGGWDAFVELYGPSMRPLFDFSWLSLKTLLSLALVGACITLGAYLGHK
Protocol: In order to determine whether the BCL2 binding properties of the Nur77-derived peptide are maintained in the NurNRTN fusion peptide, the respective NurNRTN and NRTN peptides were coupled to iodoacetyl beads (Pierce Biotechnology, Inc., Rockford, Ill., USA). The beads were incubated with recombinant BCL2 (Calbiochem/Merck, Darmstadt, Germany) and washed with PBS and 0.5 M NaCl, 0.025 NaN3, 0.05% Tween20 to remove unbound protein. Specific binding of BCL2 to the immobilized NurNTRN fusion peptide was determined by eluting bound […] from the beads with elution buffer (pH 2.8), transfer of the eluted fraction to nitrocellulose (Invitrogen Corporation, Carlsbad, Calif., USA), and protein detection by means of the MemCode Reversible Protein Stain Kit (Pierce Biotechnology, Inc., Rockford, Ill., USA).

MCF7 cells [2] = experiment: growth inhibition/toxicity (CellTiter-Glo viability, GAPDH mRNA levels)
Protocol: as §1, §2, §3, §4

MCF7 cells [3] = experiment: FACS analysis of internalization of FITC-labeled peptides; type: cell-based, human
Protocol: For FACS analysis, MCF7 cells (ATCC number HTB-22) were detached by 15 min incubation in accutase (an enzyme solution having proteolytic and collagenolytic activities; commercially available from various suppliers). After washing in FACS buffer (PBS containing 5% FCS), the cells were seeded in a 96 well, rounded bottom multi-well plate (Cat. No. 3799, Corning Inc., Corning, N.Y. USA) in a final density of 3×10^5 cells/ml and used immediately. The cells were incubated in the respective presence of 1 μM, 5 μM and 10 μM FITC-labeled peptides in OptiMEM medium for 3 hours at 37° C. Afterwards, the cells were washed in FACS buffer and incubated in proteinase K (0.02 mg/ml) containing buffer for 30 minutes at 37° C. The cells were washed twice and analyzed with the FACSCanto II (BD Biosciences; San Jose, Calif., USA) using the FITC channel.
For determining the internalization behavior of the CPPs identified in the screening procedures FITC-labeled derivates of said peptides (at 1 μM, 5 μM, and 10 μM, respectively) were analyzed by means of FACS. The following peptides were used: NRTN as a transfecting peptide, WNT16 as a non-transfecting peptide, FALL as a toxic peptide and TAT as a reference (positive control) (cf. FIG. 12). MCF7 cells were incubated in the presence of the fluorescent peptide derivatives for 3 hours at 37° C. in OptiMEM. Subsequently, the cells were treated with proteinase K for 30 minutes at 37° C. to remove surface bound peptides, and thus to ensure the monitoring only of internalized peptides. The cells were then washed in PBS and analyzed by FACS.

human Eg5 mRNA = experiment: peptide-mediated transfection of siRNA targeting Eg5 (mRNA level, CytoTox-Glo apoptosis); type: cell-based
Protocol: The siRNA sequence specificity of NRTN was investigated via analysis of the peptide's ability to transfect a siRNA duplex targeting human Eg5 mRNA. The Eg5 knockdown dependent induction of apoptosis was determined by performing a CytoTox-Glo cytotoxicity assay (Promega Inc.). The mRNA values obtained at 1 μM were set to 100% to show dose dependent effects. Induction of apoptosis is expressed as percent of medium control. Aha1 siRNA is shown as black filled squares; luciferase siRNA is shown as non-filled circles.
Then, the cells were treated with a luminogenic peptide substrate in order to measure dead-cell protease activity, which is released from cells that have lost membrane integrity. […] The luminescence of this assay therefore represents dead cells. The 96 well plates were then analyzed in an InfiniteF200 luminescence reader.
An effective reduction of cellular Eg5 mRNA levels was found at concentrations of <10 μM. […] It is known that effective depletion of Eg5 mRNA causes mitotic arrest resulting in the onset of apoptosis (Blangy, A. et al. (1995), supra). […] Transfections with control siRNA under identical conditions were not cytotoxic either, thus confirming that the apoptotic phenotype was caused by Eg5 mRNA depletion.

[4] = system: hCMEC/D3 brain endothelial cells; experiment: uptake into brain endothelial cells (blood-brain-barrier cell culture model); type: cell-based; details: FITC-conjugated peptide (N- and C-terminal), 5 μM, 1 h, 37° C.; hCMEC/D3 or primary human brain endothelial cells
Protocol: Fluorescein isothiocyanate (FITC)-conjugated NRTN peptides (N-terminal and C-terminal conjugation, respectively) were incubated with hCMEC/D3 brain endothelial cells at 5 μM for 1 h at 37° C. Subsequently, the cells were washed and fixed. Images were taken using a fluorescence microscope.
In order to evaluate potential interactions of the NRTN-derived peptide with endothelial cells forming the blood-brain-barrier, hCMEC/D3 cells or primary human brain endothelial cells were exposed to the NRTN-derived peptide in a blood-brain-barrier (BBB) model (Weksler, B. B. et al. (2005) FASEB J. 19, 1872-1874; Poller, B. et al. (2008) J. Neurochem. 107, 1358-1363). […] Thus, the NRTN-derived peptide localizes to a compartment that is important for BBB functionality (that is, for mediating and controlling transport across the BBB).

Sequence: GAAEAAARVYDLGLRRLRQRRRLRRERVRA (NRTN peptide sequence; listed as Homo sapiens) [peptide derived from human neurturin]
- peptide concentration at which cell growth/viability was affected (MCF7 cells [1]): above 10 μM
- BCL2 in eluates from peptide-coated beads (recombinant BCL2): very small amounts of BCL2 were eluted
- interference with cell viability at doses effective for Eg5 knockdown (MCF7 cells [2]; <10 μM): does not interfere with cell viability
- cell viability / growth inhibition / toxicity (CellTiter-Glo, GAPDH mRNA levels) (MCF7 cells [2]; MCF7 cells, peptide 1 μM to 20 μM): only minor effects on cell viability
- internalization into cells (FACS, FITC channel) (MCF7 cells [3]; FITC-labeled peptide 1, 5, 10 μM, 3 hours at 37° C., proteinase K treated): internalized into MCF7 cells
- change of internalization with concentration (MCF7 cells [3]; increasing the concentration from 5 μM to 10 μM): strong increase in internalization
- apoptotic phenotype upon siEg5 transfection (human Eg5 mRNA; CytoTox-Glo): an apoptotic phenotype was observed
- peptide concentration giving effective reduction of cellular Eg5 mRNA levels (human Eg5 mRNA; siRNA targeting Eg5): < 10 µM
- uptake / localization in brain endothelial cells [4]: accumulates (i.e. internalizes) under these assay conditions in endosomal structures; also recorded: localizes to intracellular endosomal structures
